Assay results reported in patent publication US8329726B2, “Inhibitors of VEGF receptor and HGF receptor signaling” (MethylGene Inc., priority 2005, dated 2012).
Read-outs that look alike come from different tables or passages of the source.

Key:
VEGF receptor KDR = target: T1, VEGF receptor KDR (Homo sapiens, UniProt P35968); experiment: In vitro receptor tyrosine kinase assay (DELFIA), VEGF receptor KDR; format: biochemical
T1 construct: made in house; host or cells: Sf9 cells (Spodoptera frugiperda), baculovirus

TPR-MET fusion protein = target: T2, TPR-MET fusion protein (Homo sapiens, UniProt P08581); experiment: C-Met phosphorylation cell-based assay (MNNGHOS cells)
T2 construct: the MET gene on chromosome 7 encoding for its cytoplasmic region catalytic domain; host or cells: MNNGHOS cells; the other entry of the earlier key: TPR (P12270, Nucleoprotein TPR)
Description: C-Met Phosphorylation Cell-Based Assay
Signal was quantitated by densitometry on Alpha-Imager.

[1] = target: T3, recombinant human c-Met/HGF receptor (Homo sapiens, UniProt P08581); experiment: In vitro receptor tyrosine kinase assay (DELFIA), c-Met/HGF receptor; format: biochemical
T3 construct: His tag (pBlueBacHis2A vector); made in house; host or cells: Hi-5 cells (Trichoplusia ni), baculovirus
Procedure: Cell pellets were frozen at −80° C. until purification was performed.
The coated plates were washed and stored at 4° C. […] After incubation, the kinase reactions were quenched with EDTA and the plates were washed.

DU145 = DU145 scattering inhibition (HGF dependent scattering); format: cell-based; settings: Homo sapiens, DU-145; HGF dependent scattering, DU145 cells; read-out: DU145 SCATTERING INHIB IC50
Description: (§1) HGF has well known activity in terms of inducing scattering and migration (wound healing) (Wells et al., Cell Motil Cytoskeleton. 2005 November 62(3):180-94; Miura et al., Urology 2001 December 58(6):1064-9; Nishimura et al., Int J Urol. 1998 May 5(3):276-81; Wang et al., Mol Cancer Ther. 2003 November; 2(11):1085-92; and Christensen et al., Cancer Res. 2003 Nov. 1; 63(21):7345-55).

A549 = A549 wound healing inhibition (HGF dependent migration); format: cell-based; settings: Homo sapiens, A549 cells, read-out: A549 WOUND HEALING INHIB IC50
Description: as §1

[2] = GST-VEGFR2 806-1356, 0.6 uM ATP, DELFIA, read-out: VEGFR (IC50)
[3] = MNNGHOS cells, 3 hours treatment, immunoblot, read-out: Y1230-34-35 TPR-MET phosphorylation (IC50)
[4] = recombinant c-Met IC, 10 uM ATP, DELFIA, read-out: C-Met (IC50)

T2 sequence (P08581 with tags, fused parts or gaps): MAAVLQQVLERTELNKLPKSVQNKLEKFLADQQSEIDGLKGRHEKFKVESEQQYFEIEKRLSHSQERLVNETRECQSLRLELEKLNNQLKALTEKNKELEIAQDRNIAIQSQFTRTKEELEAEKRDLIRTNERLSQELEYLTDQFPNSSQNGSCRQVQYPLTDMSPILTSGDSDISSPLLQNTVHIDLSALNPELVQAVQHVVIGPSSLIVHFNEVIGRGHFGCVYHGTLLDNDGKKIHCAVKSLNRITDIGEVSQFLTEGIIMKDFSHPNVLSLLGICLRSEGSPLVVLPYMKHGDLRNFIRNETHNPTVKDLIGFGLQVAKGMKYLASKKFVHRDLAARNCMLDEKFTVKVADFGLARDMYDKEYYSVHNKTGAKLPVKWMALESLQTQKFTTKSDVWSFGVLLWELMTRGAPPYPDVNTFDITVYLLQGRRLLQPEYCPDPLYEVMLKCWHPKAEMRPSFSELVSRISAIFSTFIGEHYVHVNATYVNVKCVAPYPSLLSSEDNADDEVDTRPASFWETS
T3 sequence (P08581 1078-1337): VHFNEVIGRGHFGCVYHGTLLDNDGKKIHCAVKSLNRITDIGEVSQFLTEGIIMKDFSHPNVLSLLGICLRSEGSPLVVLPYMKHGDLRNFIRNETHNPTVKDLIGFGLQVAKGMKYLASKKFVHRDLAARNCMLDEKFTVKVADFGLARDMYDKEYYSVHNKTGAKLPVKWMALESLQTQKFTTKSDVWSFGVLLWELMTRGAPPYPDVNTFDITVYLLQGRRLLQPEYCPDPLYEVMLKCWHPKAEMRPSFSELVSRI
T1 sequence (P35968 806-1356): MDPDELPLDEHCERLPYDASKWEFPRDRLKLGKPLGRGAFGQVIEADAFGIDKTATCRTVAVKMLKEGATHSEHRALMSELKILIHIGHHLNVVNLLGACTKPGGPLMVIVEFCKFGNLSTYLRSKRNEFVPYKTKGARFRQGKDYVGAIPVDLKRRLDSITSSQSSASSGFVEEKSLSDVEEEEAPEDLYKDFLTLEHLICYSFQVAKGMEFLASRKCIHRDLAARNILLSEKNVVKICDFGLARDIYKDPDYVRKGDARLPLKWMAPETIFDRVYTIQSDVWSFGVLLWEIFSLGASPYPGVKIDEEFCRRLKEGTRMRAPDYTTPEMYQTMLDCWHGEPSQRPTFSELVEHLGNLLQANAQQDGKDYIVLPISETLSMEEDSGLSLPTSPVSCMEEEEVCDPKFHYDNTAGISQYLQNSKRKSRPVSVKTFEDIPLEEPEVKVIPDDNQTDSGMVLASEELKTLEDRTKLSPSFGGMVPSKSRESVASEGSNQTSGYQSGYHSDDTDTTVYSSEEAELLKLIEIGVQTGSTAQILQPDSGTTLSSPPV

Row | SMILES | IC50 (VEGF receptor KDR; [2]) | IC50 (TPR-MET fusion protein; [3]) | IC50 [1, 4] | IC50 (TPR-MET fusion protein) | IC50 [1] | IC50 (DU145) | IC50 (VEGF receptor KDR; read-out: VEGFR IC50) | IC50 ([1]; read-out: CMET IC50) | IC50 (A549)
1 | COc1ccccc1NC(=O)CC(=O)Nc1ccc(Oc2ccnc3cc(-c4nccn4C)sc23)c(F)c1 [Compound 28a, N^1-(3-Fluoro-4-(2-(1-methyl-1H-imidazol-2-yl)thieno[3,2-b]pyridin-7-yloxy)phenyl)-N^3-(2-methoxyphenyl)malonamide] | 5 nM | ~200 nM | 42 nM |  |  |  |  |  | 
2 | Cn1ccnc1-c1cc2nccc(Oc3ccc(NC(=O)CC(=O)Nc4cccnc4)cc3F)c2s1 [Compound 40, N^1-(3-Fluoro-4-(2-(1-methyl-1H-imidazol-2-yl)thieno[3,2-b]pyridin-7-yloxy)phenyl)-N^3-(pyridine-3-yl)malonamide] | 13 nM | ~500 nM | 268 nM |  |  |  |  |  | 
3 | Cn1cncc1-c1cc2nccc(Oc3ccc(NC(=O)CC(=O)Nc4ccccc4)cc3F)c2s1 [Compound 5e, N^1-(3-Fluoro-4-(2-(1-methyl-1H-imidazol-5-yl)thieno[3,2-b]pyridin-7-yloxy)phenyl)-N^3-phenylmalonamide] | 5 nM |  |  | 155 nM | 16 nM |  |  |  | 
4 | CN(C(=O)CC(=O)Nc1ccc(Oc2ccnc3cc(-c4nccn4C)sc23)c(F)c1)c1ccccc1 [Compound 32, N^1-(3-Fluoro-4-(2-(1-methyl-1H-imidazol-2-yl)thieno[3,2-b]pyridin-7-yloxy)phenyl)-N^3-methyl-N^3-phenylmalonamide] | 5 nM | > 5000 nM | 109 nM |  |  |  |  |  | 
5 | Cn1ccnc1-c1cc2nccc(Oc3ccc(NC(=O)CC(=O)Nc4ccccc4)cc3F)c2s1 [Compound 5b, N^1-(3-Fluoro-4-(2-(1-methyl-1H-imidazol-2-yl)thieno[3,2-b]pyridin-7-yloxy)phenyl)-N^3-phenylmalonamide] | 4 nM | 40 nM | 52 nM |  |  |  |  |  | 
6 | Cn1cnc(-c2cc3nccc(Oc4ccc(NC(=O)CC(=O)Nc5ccccc5)cc4F)c3s2)c1 [Compound 5c, N^1-{3-Fluoro-4-[2-(1-methyl-1H-imidazol-4-yl)thieno[3,2-b]pyridin-7-yloxy]-phenyl}-N^3-phenylmalonamide] | 3 nM | 8 nM | 19 nM |  |  |  |  |  | 
7 | Cn1ccnc1-c1cc2nccc(Oc3ccc(NC(=O)CC(=O)Nc4ccccc4F)cc3F)c2s1 [Compound 30a, N^1-(3-Fluoro-4-(2-(1-methyl-1H-imidazol-2-yl)thieno[3,2-b]pyridin-7-yloxy)phenyl)-N^3-(2-fluorophenyl)malonamide] | 5 nM | 28 nM | 31 nM |  |  |  |  |  | 
8 | O=C(CC(=O)Nc1ccc(Oc2ccnc3cc(C(=O)N4CCCC4)sc23)c(F)c1)Nc1ccccc1 [Compound 5f, N^1-(3-Fluoro-4-(2-(pyrrolidine-1-carbonyl)thieno[3,2-b]pyridin-7-yloxy)phenyl)-N^3-phenylmalonamide] | 4 nM | ~2000 nM | 40 nM |  |  |  |  |  | 
9 | Cn1ccnc1-c1cc2nccc(Oc3ccc(NC(=O)CC(=O)Nc4ccncc4)cc3F)c2s1 [Compound 34, N^1-{3-Fluoro-4-[2-(1-methyl-1H-imidazol-2-yl)-thieno[3,2-b]pyridin-7-yloxy]-phenyl}-N^3-pyridin-4-yl-malonamide] | 19 nM | > 5000 nM | 365 nM |  |  |  |  |  | 
10 | CC(C)N(C(=O)CC(=O)Nc1ccc(Oc2ccnc3cc(C4=CCN(C)CC4)sc23)c(F)c1)c1ccccc1 |  |  |  |  |  | > 10000 nM | > 500 nM | 250 to 500 nM | > 10000 nM
11 | COc1ccccc1NC(=O)CC(=O)Nc1ccc(Oc2ccnc3cc(-c4cncn4C)sc23)c(F)c1 [Compound 28c, N^1-(3-Fluoro-4-(2-(1-methyl-1H-imidazol-5-yl)thieno[3,2-h]pyridin-7-yloxy)phenyl)-N^3-(2-methoxyphenyl)malonamide] | 13 nM | 590 nM | 40 nM |  |  |  |  |  | 
12 | Cn1cncc1-c1cc2nccc(Oc3ccc(NC(=O)CC(=O)Nc4ccccc4)cc3F)c2s1 [drawing 288] |  |  |  |  |  | < 1000 nM | < 50 nM | < 50 nM | < 1000 nM
13 | CN1CCN(Cc2ccc(-c3cc4nccc(Oc5ccc(NC(=O)CC(=O)Nc6ccccc6)cc5F)c4s3)nc2)CC1 |  |  |  |  |  | < 1000 nM | < 50 nM | < 50 nM | 1000 to 5000 nM
14 | CCn1cnc(-c2cc3nccc(Oc4ccc(NC(=O)N5CCN(c6ccccc6OC)C5=O)cc4F)c3s2)c1 |  |  |  |  |  | < 1000 nM | < 50 nM | < 50 nM | 1000 to 5000 nM
15 | COc1ccccc1NC(=O)CC(=O)Nc1ccc(Oc2ccnc3cc(C(=O)NN(C)C)sc23)c(F)c1 |  |  |  |  |  | 1000 to 5000 nM | > 500 nM | 250 to 500 nM | 1000 to 5000 nM
16 | COc1ccccc1NC(=O)CC(=O)Nc1ccc(Oc2ccnc3cc(-c4ccc(OCCN5CCOCC5)cc4)sc23)c(F)c1 |  |  |  |  |  | 1000 to 5000 nM | < 50 nM | 50 to 250 nM | 1000 to 5000 nM
17 | Cn1cnc(-c2cc3nccc(Oc4ccc(NC(=O)C5(C)CCN(c6ccccc6)C5=O)cc4F)c3s2)c1 (stereo not drawn) |  |  |  |  |  | 1000 to 5000 nM | 250 to 500 nM | 50 to 250 nM | 1000 to 5000 nM

Row | SMILES | IC50 (VEGF receptor KDR; [2]) | IC50 (TPR-MET fusion protein; [3]) | IC50 [1, 4] | IC50 (TPR-MET fusion protein) | IC50 [1] | IC50 (DU145) | IC50 (VEGF receptor KDR; read-out: VEGFR IC50) | IC50 ([1]; read-out: CMET IC50) | IC50 (A549)
18 | CCN(C(=O)CC(=O)Nc1ccc(Oc2ccnc3cc(-c4cn(CC)cn4)sc23)c(F)c1)c1ccccc1 |  |  |  |  |  | 1000 to 5000 nM | < 50 nM | 50 to 250 nM | 1000 to 5000 nM
19 | CCN(CC)CCn1cnc(-c2cc3nccc(Oc4ccc(NC(=O)CC(=O)N(C)c5ccccc5)cc4F)c3s2)c1 |  |  |  |  |  | < 1000 nM | < 50 nM | 50 to 250 nM | < 1000 nM
20 | CN1CCN(Cc2ccc(-c3cc4nccc(Oc5ccc(NC(=O)C6(C(=O)Nc7ccccc7)CC6)cc5F)c4s3)cc2)CC1 |  |  |  |  |  | < 1000 nM | < 50 nM | < 50 nM | < 1000 nM
21 | CN(C)NC(=O)c1cc2nccc(Oc3ccc(NC(=O)CC(=O)N(C)c4ccccc4)cc3F)c2s1 |  |  |  |  |  | > 10000 nM | > 500 nM | 250 to 500 nM | > 10000 nM
22 | COc1ccccc1NC(=O)CC(=O)Nc1ccc(Oc2ccnc3cc(-c4ccc(OCCCN(C)C)c(OCCCN(C)C)c4)sc23)c(F)c1 |  |  |  |  |  | > 10000 nM | 50 to 250 nM | < 50 nM | > 10000 nM
23 | CN1CCN(Cc2ccc(-c3cc4ncnc(Oc5ccc(NC(=O)CC(=O)Nc6ccccc6)cc5F)c4s3)cc2)CC1 |  |  |  |  |  | 1000 to 5000 nM | < 50 nM | 50 to 250 nM | > 10000 nM
24 | COc1ccccc1NC(=O)CC(=O)Nc1ccc(Oc2ccnc3cc(-c4ccc(OCCCN(C)C)nc4)sc23)c(F)c1 |  |  |  |  |  | 1000 to 5000 nM | 250 to 500 nM | 50 to 250 nM | 1000 to 5000 nM
25 | Cn1cnc(-c2cc3nccc(Oc4ccc(NC(=O)C5CCN(c6ccccc6)C5=O)cc4F)c3s2)c1 (stereo not drawn) |  |  |  |  |  | < 1000 nM | < 50 nM | < 50 nM | < 1000 nM
26 | CCn1cnc(-c2cc3nccc(Oc4ccc(NC(=O)CC(Nc5ccccc5)C(F)(F)F)cc4F)c3s2)c1 (stereo not drawn) |  |  |  |  |  | 1000 to 5000 nM | 50 to 250 nM | 50 to 250 nM | 1000 to 5000 nM
27 | CN(C)CCn1cnc(-c2cc3nccc(Oc4ccc(NC(=O)C5(C(=O)Nc6ccccc6)CC5)cc4F)c3s2)c1 |  |  |  |  |  | < 1000 nM | < 50 nM | < 50 nM | < 1000 nM
28 | CN(C)CCCn1cnc(-c2cc3nccc(Oc4ccc(NC(=O)CC(=O)N(C)c5ccccc5)cc4F)c3s2)c1 |  |  |  |  |  | < 1000 nM | < 50 nM | < 50 nM | < 1000 nM
29 | CC(C)n1cnc(-c2cc3nccc(Oc4ccc(NC(=O)C5CC(=O)N(c6ccccc6)C5)cc4F)c3s2)c1 (stereo not drawn) |  |  |  |  |  | > 10000 nM | > 500 nM | 250 to 500 nM | 1000 to 5000 nM
30 | COc1ccccc1NC(=O)CC(=O)Nc1ccc(Oc2ccnc3cc(-c4cn(C)cn4)sc23)c(F)c1 |  |  |  |  |  | < 1000 nM | < 50 nM | 50 to 250 nM | < 1000 nM
31 | Cn1cnc(-c2cc3nccc(Nc4ccc(NC(=O)C5(C(=O)Nc6ccc(F)cc6)CC5)cc4F)c3s2)c1 |  |  |  |  |  | < 1000 nM | < 50 nM | < 50 nM | < 1000 nM
32 | CCn1cnc(-c2cc3nccc(Oc4ccc(NC(=O)CC(=O)NC5CCCCC5)cc4F)c3s2)c1 |  |  |  |  |  | < 1000 nM | < 50 nM | 50 to 250 nM | < 1000 nM
33 | CN(C)CCn1cnc(-c2cc3nccc(Oc4ccc(NC(=O)CC(=O)Nc5ccccc5)cc4F)c3s2)c1 |  |  |  |  |  | < 1000 nM | < 50 nM | < 50 nM | < 1000 nM
34 | CN(C)CCn1cnc(-c2cc3nccc(Oc4ccc(NC(=O)CC(=O)Nc5ccccc5F)cc4F)c3s2)c1 |  |  |  |  |  | < 1000 nM | < 50 nM | < 50 nM | < 1000 nM
